Measurements as given in ChEMBL document CHEMBL1201862, “PubChem BioAssay data set” (2004).
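Tested at 5 concentrations; 48 h exposure; 96-well plates; endpoints linearly interpolated, else capped at highest concentration. GI50 marks 50% less growth.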 Active and inactive are the calls of the source. Rule as the data show it: active = GI50 up to about 1.1 µM and inactive = higher.

How the values were obtained:
Experiment in all cases: NCI tumour cell line growth inhibition, 48 h
[1] = system: CAKI-1
[2] = system: K562
[3] = system: SK-MEL-5
[4] = system: HT-29
[5] = system: SK-MEL-28
[6] = system: SK-MEL-2
[7] = system: LOX IMVI
[8] = system: OVCAR-3
[9] = system: CCRF-CEM
[10] = system: DMS-114
[11] = system: ACHN
[12] = system: UO-31
[13] = system: M14
[14] = system: HCT-116
[15] = system: 786-0
[16] = system: SNB-75
[17] = system: HOP-62
[18] = system: A549
[19] = system: TK-10

| SMILES | GI50 [1] | GI50 [2] | GI50 [3] | GI50 [4] | GI50 [5] | GI50 [6] | GI50 [7] | GI50 [8] | GI50 [9] | GI50 [10] | GI50 [11] | GI50 [12] | GI50 [13] | GI50 [14] | GI50 [15] | GI50 [16] | GI50 [17] | GI50 [18] | GI50 [19] |
| --- | --- | --- | --- | --- | --- | --- | --- | --- | --- | --- | --- | --- | --- | --- | --- | --- | --- | --- | --- |
| CN(C)CCNc1ccc2ncn3c4ccccc4c(=O)c1c23 | 2.26 µM (inactive) | > 100 µM (inactive) | 2.74 µM (inactive) | 1.38 µM (inactive) | 3.93 µM (inactive) | 2.99 µM (inactive) | 1.15 µM (inactive) | 7.76 µM (inactive) | 2.25 µM (inactive) | 2.02 µM (inactive) | 1.26 µM (inactive) | 1.53 µM (inactive) | 3.11 µM (inactive) | 0.459 µM (active) | 2.03 µM (inactive) | 3.25 µM (inactive) | 4.46 µM (inactive) | 1.82 µM (inactive) | 2.93 µM (inactive) |
| CCOC(=O)CCC(NC(=O)c1ccc(/N=C/c2nc3cc(C(F)(F)F)ccc3nc2-c2ccccc2)cc1)C(=O)OCC (stereo not drawn) | 32.4 µM (inactive) | > 50 µM (inactive) | 25.1 µM (inactive) | > 50 µM (inactive) | > 50 µM (inactive) | 11.3 µM (inactive) | 14.4 µM (inactive) | 46.6 µM (inactive) | > 50 µM (inactive) | 34.3 µM (inactive) | 11.1 µM (inactive) | > 50 µM (inactive) | 23.9 µM (inactive) | 6.56 µM (inactive) | 7.38 µM (inactive) | 5.04 µM (inactive) | 12.9 µM (inactive) | 25.1 µM (inactive) | 12.1 µM (inactive) |
| C[N+]1=C(c2cccnc2/C=N/O)OCC1(C)C | > 100 µM (inactive) | > 100 µM (inactive) | > 100 µM (inactive) | > 100 µM (inactive) | > 100 µM (inactive) | > 100 µM (inactive) | > 100 µM (inactive) | > 100 µM (inactive) | > 100 µM (inactive) | > 100 µM (inactive) | > 100 µM (inactive) | > 100 µM (inactive) | > 100 µM (inactive) | > 100 µM (inactive) | > 100 µM (inactive) | > 100 µM (inactive) | > 100 µM (inactive) | > 100 µM (inactive) | > 100 µM (inactive) |
| COC(=O)C1C(=O)N(CCc2c[nH]c3ccccc23)C[C@@H]2CCC(=O)C[C@H]12 (stereo partly drawn) | > 100 µM (inactive) | > 100 µM (inactive) | > 100 µM (inactive) | > 100 µM (inactive) | > 100 µM (inactive) | > 100 µM (inactive) | > 100 µM (inactive) | > 100 µM (inactive) | > 100 µM (inactive) | > 100 µM (inactive) |  | > 100 µM (inactive) | > 100 µM (inactive) | > 100 µM (inactive) | > 100 µM (inactive) | > 100 µM (inactive) | > 100 µM (inactive) | > 100 µM (inactive) | > 100 µM (inactive) |
| O=C(CN(c1ccccc1)c1ccccc1)N1c2ccccc2C2C=CC=CC21 (stereo not drawn) | 18.3 µM (inactive) | 14.3 µM (inactive) | 15.6 µM (inactive) | 22.2 µM (inactive) | 30.4 µM (inactive) | 18.1 µM (inactive) | 18.2 µM (inactive) | 17.4 µM (inactive) | 9.42 µM (inactive) | 7.38 µM (inactive) | 24 µM (inactive) | 30.1 µM (inactive) | 25.6 µM (inactive) | 13.8 µM (inactive) | 22.6 µM (inactive) | 18.1 µM (inactive) | 20.1 µM (inactive) | 23.8 µM (inactive) | 24.3 µM (inactive) |
| O=C1CC(c2ccc(Cl)cc2)=Nc2ccccc2N1 | > 100 µM (inactive) | 40 µM (inactive) | > 100 µM (inactive) | > 100 µM (inactive) | > 100 µM (inactive) | > 100 µM (inactive) | 24.2 µM (inactive) | 84.9 µM (inactive) | 15.1 µM (inactive) | 81.5 µM (inactive) | 69.5 µM (inactive) | 48 µM (inactive) | > 100 µM (inactive) | 28.6 µM (inactive) | 36.1 µM (inactive) | 20.6 µM (inactive) | 40.6 µM (inactive) | > 100 µM (inactive) | 43.3 µM (inactive) |
| O=C(Nc1ccc(Cl)c(Cl)c1)C1C(=O)N(c2ccc(Cl)c(Cl)c2)C(=O)/C1=N\O (stereo not drawn) | > 100 µM (inactive) | 16.9 µM (inactive) | > 100 µM (inactive) | 39.4 µM (inactive) | 25.6 µM (inactive) | > 100 µM (inactive) | 24.5 µM (inactive) | > 100 µM (inactive) | 42.1 µM (inactive) | 30.3 µM (inactive) | > 100 µM (inactive) | > 100 µM (inactive) | 22.9 µM (inactive) | 32.6 µM (inactive) | 44.5 µM (inactive) | > 100 µM (inactive) | > 100 µM (inactive) | 36.6 µM (inactive) | > 100 µM (inactive) |
| N#CC(C(=O)CCC(=O)C(C#N)c1ccccc1)c1ccccc1 (stereo not drawn) | > 100 µM (inactive) | > 100 µM (inactive) | > 100 µM (inactive) | > 100 µM (inactive) | > 100 µM (inactive) | > 100 µM (inactive) | > 100 µM (inactive) | > 100 µM (inactive) | > 100 µM (inactive) | > 100 µM (inactive) | > 100 µM (inactive) | > 100 µM (inactive) | > 100 µM (inactive) | > 100 µM (inactive) | > 100 µM (inactive) | > 100 µM (inactive) | > 100 µM (inactive) | > 100 µM (inactive) | > 100 µM (inactive) |
| Cc1cccc(C)c1NC(=O)CCC(=O)NNc1nnc(C)n1N | > 100 µM (inactive) | > 100 µM (inactive) | > 100 µM (inactive) | > 100 µM (inactive) | > 100 µM (inactive) | > 100 µM (inactive) | > 100 µM (inactive) | > 100 µM (inactive) | > 100 µM (inactive) | > 100 µM (inactive) | > 100 µM (inactive) | > 100 µM (inactive) | > 100 µM (inactive) | > 100 µM (inactive) | > 100 µM (inactive) | > 100 µM (inactive) | > 100 µM (inactive) | > 100 µM (inactive) | > 100 µM (inactive) |
| CCOc1ccccc1NC(=O)C(=O)CC(=O)c1c(C)[n+]([O-])c2ccccc2[n+]1[O-] | > 100 µM (inactive) | > 100 µM (inactive) | 43.9 µM (inactive) | > 100 µM (inactive) | > 100 µM (inactive) | > 100 µM (inactive) | 99.3 µM (inactive) | 25.2 µM (inactive) | 52.8 µM (inactive) | > 100 µM (inactive) | > 100 µM (inactive) | > 100 µM (inactive) | > 100 µM (inactive) | > 100 µM (inactive) | > 100 µM (inactive) | > 100 µM (inactive) | > 100 µM (inactive) | > 100 µM (inactive) | > 100 µM (inactive) |
| CC1CC2C3CC(F)C4=CC(=O)C=CC4(C)C3(F)C(O)CC2(C)C1(O)C(=O)CO (stereo not drawn) | > 100 µM (inactive) | > 100 µM (inactive) | > 100 µM (inactive) | > 100 µM (inactive) | > 100 µM (inactive) | > 100 µM (inactive) | > 100 µM (inactive) | > 100 µM (inactive) | 0.0112 µM (active) | > 100 µM (inactive) | > 100 µM (inactive) | > 100 µM (inactive) | > 100 µM (inactive) | > 100 µM (inactive) | > 100 µM (inactive) | > 100 µM (inactive) | > 100 µM (inactive) | > 100 µM (inactive) | > 100 µM (inactive) |
